{"source": "patent US12458608B2", "about": "(NACUITY PHARMACEUTICALS, INC., priority 2019, dated 2025)", "key": {"[1]": {"tested_on": "Light melanin human skin explant", "assay": "Human skin explants exposed to UVA radiation, GSSG/thiol analysed by LCMS", "assay_type": "cell-based", "details": "for Levels of thiol production in human skin exposed to UVA-induced oxidative skin damage: FIG. 3; for Dermal GSSG / levels of GSSG production: topical 100 mM in 10% DMSO/water 30 min prior to UVA (24 J/cm2), tissue harvested 24 hours after UVA, single donor, n=6", "description": "Effects of NPI-001 (NACA 10 mM) and diNACA (10 mM) on human skin explants upon radiation (UVA) exposure.\nLight melanin human skin explant (single donor; n=6) in transwells were exposed to UVA radiation (24 J/cm2) with and without topical application of the NPI-001 and diNACA at a final concentration of 100 mM (NPI-001 16.2 mg/ml; diNACA 32.2 mg/ml) dissolved or suspended in 10% DMSO/water and applied at ˜18 μl/cm2(˜6 μl/0.33 cm2) 30 min prior to UVA exposure (24 J/cm2 exposure). 24 hours following UVA exposure tissue was harvested, cut in half and heat separated into epidermal and dermal layers; weighed; immediate submersion of the dermal and epidermal layers into a derivatization solution, analyzed by LCMS."}, "[2]": {"molecular_target": "glutamate cysteine ligase (GCL, EC 6.3.2.2)", "details": "nonallosteric competitive inhibition; cited from earlier work"}, "[3]": {"details": "cited from earlier work"}, "[4]": {"tested_on": "Reconstructed human epithelium (RHE) with melanocytes (MelanoDerm)", "assay": "Reconstructed human epithelium (RHE) model to assess decrease of pigmentation in skin (photographs, melanin extraction)", "assay_type": "cell-based", "details": "for RHE pigmentation: MelanoDerm RHE cultured 14 days, basolateral treatment every other day, NACA 10 mM, diNACA 10 mM, 2% GSSG, vs relative day untreated control", "description": "Reconstructed human epithelium (RHE) model to assess the ability of NPI-001 and NPI2 to decrease pigmentation in skin:\nReconstructed human epithelium (RHE) with melanocytes were obtained from MatTek (MelanoDerm™ cat #MEL-300B). RHE were cultured for 14 days with reapplication of media with basolateral treatment every other day. Day 0, Day 7 and Day 14 RHE were photographed and frozen for melanin extraction.\nAfter harvest of RHE on Day 14, cultures were submerged for 30 min in 1% sodium bicarbonate and transferred to Eppendorf tubes with 500 μl Solvable™ reagent for overnight incubation at 60° C. A synthetic melanin standard curve was made in Solvable™ reagent from 0.5-0.0039 mg/ml in half dilutions. 200 μl of extracted melanin was transferred to a 96 well plate and read at 490 nm for quantification."}}, "note": "Entries after “also recorded” stand apart in the source; their conditions may differ."}
{"smiles": "CC(=O)N[C@@H](CS)C(N)=O", "values": [{"measurement": "Levels of thiol production in human skin exposed to UVA-induced oxidative skin damage", "setting": "[1]", "result": "increased"}, {"measurement": "Dermal GSSG / levels of GSSG production", "setting": "[1]", "result": "increased; also recorded: statistically significant increases"}]}
{"smiles": "N[C@@H](CCC(=O)N[C@@H](CS)C(=O)NCC(=O)O)C(=O)O", "note": "[GSH, c-L-glutamyl-L-cysteinyl-glycine]", "values": [{"measurement": "Ki", "setting": "[2]", "result": 2300, "unit": "µM"}]}
{"smiles": "CC(=O)N[C@@H](CS)C(=O)O", "note": "[NAC, N-acetylcysteine]", "values": [{"measurement": "NAC detectable after administration", "setting": "[3]; 10-12 hours after administration", "result": "no NAC is detectable"}, {"measurement": "Plasma half-life", "setting": "[3]; humans", "result": 2.5, "unit": "h"}, {"measurement": "Absorption and clearance", "setting": "[3]; oral dose of 600 mg in humans", "result": "rapidly absorbed and then rapidly cleared"}]}
{"smiles": "CC(=O)N[C@@H](CSSC[C@H](NC(C)=O)C(N)=O)C(N)=O", "note": "[diNACA, (2R,2R′)-3,3′-disulfanediyl bis(2-acetamidopropanamide)]", "values": [{"measurement": "RHE pigmentation", "setting": "[4]", "result": "decreased; also recorded: significantly inhibited"}, {"measurement": "RHE pigmentation", "setting": "[4]; listed as NPI2", "result": "decreased"}, {"measurement": "Melanin extracted from RHE", "setting": "[4]; after 0, 7 and 14 days with treatment, read at 490 nm, vs untreated control at relative day of harvest", "result": "decreased"}, {"measurement": "Levels of thiol production in human skin exposed to UVA-induced oxidative skin damage", "setting": "[1]", "result": "increased"}, {"measurement": "Dermal GSSG / levels of GSSG production", "setting": "[1]", "result": "increased; also recorded: statistically significant increases"}]}
